# Reference: patent US5173486A, “Dibenz[b,f][1,4]oxazepin-11(10H)-ones for multidrug resistance reversing agents” (Bristol-Myers Squibb Company, priority 1991, dated 1992)
# “And” between values parts separate entries of the source, which are not always exact repeats. Equal entries are not always repeated. Where two headings read alike, the source gives them in different places. *1 amine or outer side, *2 acyl side, *3 side chain or, on linkers, in order; H or OH if unused. Where a SMILES comes first, the peptide text is derived from it. Bridges are numbered along the chain shown (N, C = ends). Roman numbers before positions name the chains, in order. [ ]: non-standard residue; d: D form. Actinocin(9to1) = Cc1c2oc3c(C)ccc(C(=O)[*:1])c3nc-2c(C(=O)[*:2])c(N)c1=O; NMeV = CN[C@H](C(=O)O)C(C)C; Sar = CNCC(=O)O
# Tests used:
# Assay type in all cases: cell-based
# [1] = tested on: MCF-7/ADR cells; experiment: Cytotoxic assay, MDR reversing effects of chemosensitizers with Adriamycin in human breast carcinoma MCF-7 resistant cells; settings: for Fold Resistance: ADR; for IC50: read-out: ADR IC50
# Description: (§1) Cell Culture: HCT116/VM46 cells were selected from human colon carcinoma HCT116 cell line for resistance to VM26 and MCF-7/ADR cells were selected from human breast carcinoma MCF-7 cell line for resistance to Adriamycin. […] The cell lines were grown in tissue culture flasks containing McCoy's A medium and 10% fetal bovine serum. Cells were maintained at 37° C. in a humidified atmosphere containing 5% CO2 and subcultured every 5 days.
# (§2) Cytotoxic Assay: The cells were seeded in 96 well microtiter plates at 5×10^3 cells per well and allowed to grow for 24 hours at 37° C. Cells were then incubated with decreasing amounts of antitumor agents: Adriamycin (100 μM, maximal concentration) or actinomycin D (17.6 ng/ml), for MCF-7 and HCT-116 cells, respectively. Chemosensitizers were added at variable concentrations ranging from 0.08 μM to 40 μM. In parallel, verapamil was used as positive control at the same concentrations. After 48 hours of incubation, the cells were washed, fixed and stained with crystal violet. Absorbance was read by Molecular Devices' microtiter plate reader at the wavelength of 595nm. The IC50 value (50% inhibition of cell growth) was determined from relative survival rates resulted from two to three independent experiments. The term "fold resistance" was defined as the ratio of the IC50 for antitumor drug in the presence or absence of chemosensitizer in resistant cells divided by the IC50 for antitumor drug in its sensitive counterpart. This value provides an estimate of the apparent potency of each reversing agent in enhancing drug effect.
# [2] = tested on: MCF-7 cells; experiment: Cytotoxic assay, Adriamycin in sensitive human breast carcinoma MCF-7 cells; settings: MCF-7 (sensitive); ADR; no chemosensitizer; 2880 min
# Description: as §1
# as §2, with “The term "fold resistance" was defined as the ratio of the IC50 for antitumor drug in the presence or absence of chemosensitizer in resistant cells divided by the IC50 for antitumor drug in its sensitive counterpart. This value provides an estimate of the apparent potency of each reversing agent in enhancing drug effect.” left out
# [3] = tested on: HCT-116/VM46 cells; experiment: Cytotoxic assay, MDR reversing effects of chemosensitizers with actinomycin D in human colon carcinoma HCT-116 resistant cells; settings: for Fold Resistance: ActD; for ActD IC50: 48 hours
# Description: as §1, §2
# [4] = tested on: HCT116 cells; experiment: Cytotoxic assay, actinomycin D in sensitive human colon carcinoma HCT116 cells; settings: no chemosensitizer
# Description: as §1
# as §2, with “The term "fold resistance" was defined as the ratio of the IC50 for antitumor drug in the presence or absence of chemosensitizer in resistant cells divided by the IC50 for antitumor drug in its sensitive counterpart. This value provides an estimate of the apparent potency of each reversing agent in enhancing drug effect.” left out
# [5] = chemosensitizer 0.4 μM, IC50 ratio to sensitive HCT116
smiles,measurement,setting,value
"COc1cccc2c1C(=O)c1c(O)c3c(c(O)c1C2=O)C[C@@](O)(C(=O)CO)C[C@@H]3O[C@H]1C[C@H](N)[C@H](O)[C@H](C)O1 [ADR, reference compound]",Fold Resistance,"[1]; no chemosensitizer, IC50 ratio to sensitive MCF-7, 2880 min",138.9
same,IC50,"[1]; Homo sapiens, 48 h",50 µM
same,Fold Resistance,[2],1
C=C(CC)C(=O)c1ccc(OCC(=O)Nc2cc3c(cc2Cl)C(=O)N(CCN(CC)CC)c2ccc(C(F)(F)F)cc2O3)c(Cl)c1Cl [Io],Fold Resistance,[3]; [5],3.6
same,ActD IC50,[3]; chemosensitizer 0.4 μM,1.8 ng/mL
"CCN(CC)CCN1C(=O)c2cc(Cl)c(NC(=O)C(C)C)cc2Oc2cc(C(F)(F)F)ccc21 [Ii, N-[2-Chloro-10,11-dihydro-10-[2-(diethylamino)ethyl-11-oxo-7-(trifluoromethyl)dibenz[b.f]1,4]oxezpin-3-yl]-2-methylpropionamide]",Fold Resistance,[3]; [5],3.4
same,ActD IC50,[3]; chemosensitizer 0.4 μM,1.7 ng/mL
same,Fold Resistance,"[1]; chemosensitizer 0.67 μM, IC50 ratio to sensitive MCF-7",28.9
same,IC50,"[1]; chemosensitizer 0.67 μM, 48 hours",10.4 µM
CCN(CC)CCN1C(=O)c2cc(Cl)c(NC(=O)C3CCCC3)cc2Oc2cc(C(F)(F)F)ccc21 [Ip],Fold Resistance,"[3]; chemosensitizer 0.24 μM, IC50 ratio to sensitive HCT116",3.4
same,ActD IC50,[3]; chemosensitizer 0.24 μM,1.7 ng/mL
"Cc1c2oc3c(C)ccc(C(=O)N[C@@H]4C(=O)N[C@H](C(C)C)C(=O)N5CCC[C@H]5C(=O)N(C)CC(=O)N(C)[C@@H](C(C)C)C(=O)O[C@@H]4C)c3nc-2c(C(=O)N[C@@H]2C(=O)N[C@H](C(C)C)C(=O)N3CCC[C@H]3C(=O)N(C)CC(=O)N(C)[C@@H](C(C)C)C(=O)O[C@@H]2C)c(N)c1=O [ActD, reference compound] (I: T[dV]P[Sar][NMeV] / II: T[dV]P[Sar][NMeV]; ester I:1-I:C, II:1-II:C; linker I:N-II:N via Actinocin(9to1))",Fold Resistance,"[3]; no chemosensitizer, IC50 ratio to sensitive HCT116, 2880 min, 2880 min",15.6 and 20.0
same,Fold Resistance,"[4]; ActD, 2880 min",1.0
same,ActD IC50,[4]; 48 hours,0.5 ng/mL
